Data on 1 compound can be found in patent US8507460B2, “Substituted 3′,5′-cyclic phosphates of purine nucleotide compounds and pharmaceutical compositions for the treatment of viral infections” (priority 2011, dated 2013).

One series has as its system HCV genotype 1b replicon. Description: HCV Replicon Assay (Zluc luciferase reporter). It is filed as cell-based. As to the method: Huh-7-derived cell line (Zluc) that harbors an HCV genotype 1b replicon and a luciferase reporter gene was grown in Dulbecco's Modified Eagle Medium (DMEM) supplemented with 10% fetal bovine serum, 2 mM GlutaMAX, 1% MEM nonessential amino acids, 100 IU/mL penicillin, 100 μg/mL streptomycin, and 0.5 mg/mL Geneticin® (G418). For dose response testing the cells were seeded in 96-well plates at 7.5×10^3 cells per well in a volume of […], and incubated at 37° C./5% CO2. Drug solutions were made up freshly in Huh-7 media as 2× stocks. […] 5-fold dilutions were prepared from these stocks in DMEM without G418. At least three hours after Zluc cells were seeded, drug treatment was initiated by adding 50 μL of drug dilutions to the plates in duplicate. Final concentrations of drug ranged from 100 μM to 0.0000512 μM. Cells were then incubated at 37° C./5% CO2. Alternatively, compounds were tested at two concentrations (1 μM and 10 μM). […] After 72 hours of incubation, the inhibition of HCV replication was measured by quantification of photons emitted after mono-oxygenation of 5′-fluoroluciferin to oxyfluoroluciferin by firefly luciferase. For this, media was removed from the plates via gentle tapping. Fifty microliters of ONE-glo luciferase assay reagent was added to each well. The plates were shaken gently for 3 min at room temperature and luminescence was measured on a Victor^3 V 1420 multilabel counter (Perkin Elmer) with a 1 second read time using a 700 nm cut-off filter. The EC50 values were calculated from dose response curves from the resulting best-fit equations determined by Microsoft Excel and XLfit 4.1 software. When screening at two fixed concentrations, the results were expressed as % inhibition at 1 μM and 10 μM.

Series [1] is described as follows: Cytotoxicity evaluation, CellTiter-Blue Cell Viability Assay. It is filed as cell-based. Conditions: human, Zluc cells, read-out: HCV Replicon CC50. As to the method:
For cytotoxicity evaluation, Zluc cells were treated with compound as described above, and cell viability was monitored using the CellTiter-Blue Cell Viability Assay (Promega) by adding 20 μL of the assay solution to each well. The plates were then incubated at 37° C./5% CO2 for at least 3 hours.

Series [2] in a line: Stability in simulated gastric and intestinal fluids. The class given is in vitro ADME. Conditions: 100 μM, 2 hours at 37° C., percent of peak area at time zero. Here is the method: Simulated gastric and intestinal fluids containing pepsin and pancreatin respectively were prepared according to the U.S. Pharmacopoeia USP291 procedure (www.pharmacopeia.cn/v29240/usp29nf24s0_ris1s126.html). Test compound (final concentration 100 μM) was incubated in duplicate in the appropriate fluid for 2 hours at 37° C. The samples were quenched with 200 μl cold acetonitrile, vortexed for 30 seconds and then centrifuged at 16,100 g for 10 min. The supernatants were analyzed by HPLC on a C-18 column with UV detection at 252 nm. The time 0 samples were prepared by adding SGF or SIF fluid to the quenching solvent followed by the test compound. Stability of the compound was determined by peak area the test compound after incubation and calculated as percent of the peak area observed at time zero.

Series [3] in a line: Plasma and liver pharmacokinetics following a single oral dose in monkeys (Example 6). It is filed as in vivo. As to conditions: cynomolgus monkey, plasma, Cynomolgus monkeys, single oral dose (mg/kg per Table 6: 1a 10, A 25, B 10, C 10, D 50). As to the method: […] Untreated animals were used for the collection of control liver. Plasma samples were collected at 1, 2, 4, 6, 8, 12 and 24 hours for all compounds and additionally at 0.5 hour (Compounds 1a, B and D), 3 and 10 hours (Compound C), and 32 and 48 hours post dose for Compound A. Terminal liver samples were collected from three animals per time point at 6, 12 and 24 hours post dose for all compounds and additionally at 2 hours (Compounds 1a, B and D), 3 hours (Compound C) and 32 and 48 hours post dose for Compound A. Liver specimens were collected from all animals immediately after the incision. Freezing forceps stored in liquid nitrogen were used to freeze the liver before excision.
Plasma samples were analyzed for the prodrug and 2′-methylguanosine (2′-MeG) or relevant nucleoside by LC-MS/MS. For protein precipitation and extraction, each plasma sample (50 μL) was treated with 500 μL of 0.2% formic acid in acetonitrile and 20 μL of an appropriate internal standard working solution. After vortexing and centrifugation, 500 μL of the sample extracts were transferred to a new plate, dried under N2 at ˜28° C. and reconstituted with 75 μL of 0.2% FA in water. The extracts were chromatographed on an Aquasil C18 column using a gradient system of 0.2% formic acid in water and acetonitrile. The analytes were detected and quantified by tandem mass spectrometry in positive ion mode on an MDS Sciex API5000 or an API4000 equipped with a Turbo Ionspray® interface. The calibration range was 0.500 (LLOQ) to 200 ng/mL in mouse plasma. The corresponding range for molar units is 1.68 to 673 pmol/mL.
Liver samples were analyzed for the active species 2′-methylguanosine triphosphate (2′-MeGTP) or relevant nucleoside triphosphate by LC-MS/MS. The triphosphate levels were assayed by homogenizing (on ice) a known weight of mouse liver with 4× volume of 0.95 M trichloroacetic acid (TCA). Appropriate internal standard solution was added to the homogenate followed by neutralization with 20% ammonium hydroxide solution and addition of 500 μL 1% formic acid. The tissue samples were extracted by weak anion exchange solid phase extraction (SPE). Post extraction, the eluates were evaporated under nitrogen, followed by reconstitution before injection onto the LC-MS/MS system. The samples were chromatographed on a Luna NH2 column using a gradient system of ammonium acetate (1 mM to 20 mM and pH 8.0 to pH 10.0) in water and acetonitrile (70:30). The analyte was detected and quantified by tandem mass spectrometry in positive ion mode on an API4000 equipped with a Turbo Ionspray® interface. The calibration range was 10 to 10000 pmol/mL in mouse liver homogenate (50 to 50000 pmol/g of mouse liver).

Bounds are passed on as bounds.

Consider `CCOc1nc(N)nc2c1ncn2[C@@H]1O[C@@H]2COP(=O)(OC(C)C)O[C@H]2[C@@]1(C)O` (single isomer, unassigned) [Compound 1a], for which, in the series with HCV genotype 1b replicon (HCV replicon assay, Zluc cells), the selectivity index entry is on record as “greater than 100”. Moreover, in the series with HCV genotype 1b replicon (Zluc cells (Huh-7-derived, HCV genotype 1b replicon, luciferase reporter), 72 hours), the EC50 is ≤ 0.25 µM. Further, the 50% cytotoxic concentration (CC50) at 72 h in series [1] was > 50 µM. Besides, in series [2] (simulated gastric fluid with pepsin), the “Stability SGF” value is listed as 99%. Besides, the “Stability SIF” value in series [2] (simulated intestinal fluid with pancreatin) is on record as 99%. Moreover, in series [3] (normalized to 1 μmol/kg dose, read-out: Plasma prodrug AUC0-24), the AUC(0-t) was 150 nM·h. Moreover, the Cmax in series [3] (normalized to 1 μmol/kg dose, read-out: Plasma prodrug Cmax) worked out at 0.022 µM. In series [3] (read-out: Plasma prodrug Tmax), the Tmax was 2 h.
